Data from PubChem BioAssay (NCI).
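A five-concentration, 48-hour dose response in 96-well plates underlies each endpoint, interpolated linearly between surrounding concentrations. TGI denotes the concentration required for complete inhibition of growth.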

Legend:
Assay in all cases: NCI-60 cell line screen, 48 h
786-0 renal = test system: 786-0 renal
A549 NSCLC = test system: A549 NSCLC
ACHN renal = test system: ACHN renal
CAKI-1 renal = test system: CAKI-1 renal
COLO 205 colon = test system: COLO 205 colon
DLD-1 colon = test system: DLD-1 colon
DMS 273 small cell lung = test system: DMS 273 small cell lung
HCC-2998 colon = test system: HCC-2998 colon
HCT-116 colon = test system: HCT-116 colon
HCT-15 colon = test system: HCT-15 colon
HL-60(TB) leukemia = test system: HL-60(TB) leukemia
HOP-18 NSCLC = test system: HOP-18 NSCLC
HOP-62 NSCLC = test system: HOP-62 NSCLC
HOP-92 NSCLC = test system: HOP-92 NSCLC
KM12 colon = test system: KM12 colon
KM20L2 colon = test system: KM20L2 colon
LOX IMVI melanoma = test system: LOX IMVI melanoma
LXFL 529 NSCLC = test system: LXFL 529 NSCLC
M14 melanoma = test system: M14 melanoma
MALME-3M melanoma = test system: MALME-3M melanoma
MOLT-4 leukemia = test system: MOLT-4 leukemia
NCI-H226 lung = test system: NCI-H226 lung
NCI-H23 lung = test system: NCI-H23 lung
NCI-H522 lung = test system: NCI-H522 lung
OVCAR-4 ovarian = test system: OVCAR-4 ovarian
OVCAR-5 ovarian = test system: OVCAR-5 ovarian
RPMI-8226 leukemia = test system: RPMI-8226 leukemia
RXF 393 renal = test system: RXF 393 renal
RXF-631 renal = test system: RXF-631 renal
SF-268 CNS = test system: SF-268 CNS
SF-295 CNS = test system: SF-295 CNS
SK-MEL-2 melanoma = test system: SK-MEL-2 melanoma
SK-MEL-28 melanoma = test system: SK-MEL-28 melanoma
SK-MEL-5 melanoma = test system: SK-MEL-5 melanoma
SK-OV-3 ovarian = test system: SK-OV-3 ovarian
SN12C renal = test system: SN12C renal
SNB-19 CNS = test system: SNB-19 CNS
SNB-75 CNS = test system: SNB-75 CNS
SNB-78 CNS = test system: SNB-78 CNS
SR leukemia = test system: SR leukemia
SW-620 colon = test system: SW-620 colon
TK-10 renal = test system: TK-10 renal
U251 CNS = test system: U251 CNS
UACC-257 melanoma = test system: UACC-257 melanoma
XF 498 CNS = test system: XF 498 CNS
A498 renal = test system: A498 renal
CCRF-CEM leukemia = test system: CCRF-CEM leukemia
DMS 114 small cell lung = test system: DMS 114 small cell lung
EKVX NSCLC = test system: EKVX NSCLC
HT29 colon = test system: HT29 colon
IGROV1 ovarian = test system: IGROV1 ovarian
K-562 leukemia = test system: K-562 leukemia
M19-MEL melanoma = test system: M19-MEL melanoma
NCI-H460 lung = test system: NCI-H460 lung
OVCAR-3 ovarian = test system: OVCAR-3 ovarian
OVCAR-8 ovarian = test system: OVCAR-8 ovarian
SF-539 CNS = test system: SF-539 CNS
UACC-62 melanoma = test system: UACC-62 melanoma
UO-31 renal = test system: UO-31 renal

## C#CCn1c(=O)[nH]c(=O)c2cccnc21
786-0 renal
  TGI: > 100 µM
A549 NSCLC
  TGI: > 100 µM
ACHN renal
  TGI: > 100 µM
CAKI-1 renal
  TGI: > 100 µM
COLO 205 colon
  TGI: > 100 µM
DLD-1 colon
  TGI: > 100 µM
DMS 273 small cell lung
  TGI: > 100 µM
HCC-2998 colon
  TGI: > 100 µM
HCT-116 colon
  TGI: > 100 µM
HCT-15 colon
  TGI: > 100 µM
HL-60(TB) leukemia
  TGI: > 100 µM
HOP-18 NSCLC
  TGI: > 100 µM
HOP-62 NSCLC
  TGI: > 100 µM
HOP-92 NSCLC
  TGI: > 100 µM
KM12 colon
  TGI: > 100 µM
KM20L2 colon
  TGI: > 100 µM
LOX IMVI melanoma
  TGI: > 100 µM
LXFL 529 NSCLC
  TGI: > 100 µM
M14 melanoma
  TGI: > 100 µM
MALME-3M melanoma
  TGI: > 100 µM
MOLT-4 leukemia
  TGI: > 100 µM
NCI-H226 lung
  TGI: > 100 µM
NCI-H23 lung
  TGI: > 100 µM
NCI-H522 lung
  TGI: > 100 µM
OVCAR-4 ovarian
  TGI: > 100 µM
OVCAR-5 ovarian
  TGI: > 100 µM
RPMI-8226 leukemia
  TGI: > 100 µM
RXF 393 renal
  TGI: > 100 µM
RXF-631 renal
  TGI: > 100 µM
SF-268 CNS
  TGI: > 100 µM
SF-295 CNS
  TGI: > 100 µM
SK-MEL-2 melanoma
  TGI: > 100 µM
SK-MEL-28 melanoma
  TGI: > 100 µM
SK-MEL-5 melanoma
  TGI: > 100 µM
SK-OV-3 ovarian
  TGI: > 100 µM
SN12C renal
  TGI: > 100 µM
SNB-19 CNS
  TGI: > 100 µM
SNB-75 CNS
  TGI: > 100 µM
SNB-78 CNS
  TGI: > 100 µM
SR leukemia
  TGI: > 100 µM
SW-620 colon
  TGI: > 100 µM
TK-10 renal
  TGI: > 100 µM
U251 CNS
  TGI: > 100 µM
UACC-257 melanoma
  TGI: > 100 µM
XF 498 CNS
  TGI: > 100 µM

## O=c1[nH]c2cc([N+](=O)[O-])ccc2nc1/C(=N/Nc1ccccc1)C(O)c1ccc(Cl)cc1Cl (configuration not stated)
786-0 renal
  TGI: > 100 µM
A498 renal
  TGI: > 100 µM
A549 NSCLC
  TGI: > 100 µM
ACHN renal
  TGI: > 100 µM
CCRF-CEM leukemia
  TGI: > 100 µM
COLO 205 colon
  TGI: > 100 µM
DLD-1 colon
  TGI: > 100 µM
DMS 114 small cell lung
  TGI: 44.7 µM
DMS 273 small cell lung
  TGI: > 100 µM
EKVX NSCLC
  TGI: > 100 µM
HCC-2998 colon
  TGI: > 100 µM
HCT-116 colon
  TGI: > 100 µM
HCT-15 colon
  TGI: > 100 µM
HL-60(TB) leukemia
  TGI: > 100 µM
HOP-18 NSCLC
  TGI: > 100 µM
HOP-62 NSCLC
  TGI: > 100 µM
HOP-92 NSCLC
  TGI: > 100 µM
HT29 colon
  TGI: > 100 µM
IGROV1 ovarian
  TGI: > 100 µM
K-562 leukemia
  TGI: > 100 µM
KM12 colon
  TGI: > 100 µM
KM20L2 colon
  TGI: > 100 µM
LOX IMVI melanoma
  TGI: > 100 µM
M14 melanoma
  TGI: > 100 µM
M19-MEL melanoma
  TGI: > 100 µM
MALME-3M melanoma
  TGI: > 100 µM
MOLT-4 leukemia
  TGI: > 100 µM
NCI-H226 lung
  TGI: > 100 µM
NCI-H23 lung
  TGI: > 100 µM
NCI-H460 lung
  TGI: > 100 µM
NCI-H522 lung
  TGI: > 100 µM
OVCAR-3 ovarian
  TGI: > 100 µM
OVCAR-4 ovarian
  TGI: > 100 µM
OVCAR-5 ovarian
  TGI: > 100 µM
OVCAR-8 ovarian
  TGI: > 100 µM
RPMI-8226 leukemia
  TGI: > 100 µM
RXF 393 renal
  TGI: > 100 µM
RXF-631 renal
  TGI: > 100 µM
SF-268 CNS
  TGI: > 100 µM
SF-295 CNS
  TGI: > 100 µM
SF-539 CNS
  TGI: > 100 µM
SK-MEL-2 melanoma
  TGI: > 100 µM
SK-MEL-5 melanoma
  TGI: > 100 µM
SK-OV-3 ovarian
  TGI: > 100 µM
SN12C renal
  TGI: > 100 µM
SNB-75 CNS
  TGI: > 100 µM
SNB-78 CNS
  TGI: > 100 µM
SR leukemia
  TGI: 82.4 µM
TK-10 renal
  TGI: > 100 µM
U251 CNS
  TGI: > 100 µM
UACC-257 melanoma
  TGI: > 100 µM
UACC-62 melanoma
  TGI: > 100 µM
UO-31 renal
  TGI: > 100 µM
XF 498 CNS
  TGI: > 100 µM

## Cc1ccccc1NC(=O)C(=O)C1CN(c2ccccc2)N=C1N (configuration not stated)
786-0 renal
  TGI: > 100 µM
A498 renal
  TGI: > 100 µM
A549 NSCLC
  TGI: > 100 µM
CAKI-1 renal
  TGI: > 100 µM
CCRF-CEM leukemia
  TGI: > 100 µM
DLD-1 colon
  TGI: > 100 µM
EKVX NSCLC
  TGI: > 100 µM
HCC-2998 colon
  TGI: > 100 µM
HCT-116 colon
  TGI: > 100 µM
HL-60(TB) leukemia
  TGI: > 100 µM
HOP-62 NSCLC
  TGI: > 100 µM
HOP-92 NSCLC
  TGI: > 100 µM
HT29 colon
  TGI: > 100 µM
IGROV1 ovarian
  TGI: > 100 µM
K-562 leukemia
  TGI: > 100 µM
KM20L2 colon
  TGI: > 100 µM
LXFL 529 NSCLC
  TGI: > 100 µM
M14 melanoma
  TGI: > 100 µM
M19-MEL melanoma
  TGI: > 100 µM
MALME-3M melanoma
  TGI: > 100 µM
MOLT-4 leukemia
  TGI: > 100 µM
NCI-H226 lung
  TGI: > 100 µM
NCI-H23 lung
  TGI: > 100 µM
NCI-H460 lung
  TGI: > 100 µM
NCI-H522 lung
  TGI: > 100 µM
OVCAR-3 ovarian
  TGI: > 100 µM
OVCAR-4 ovarian
  TGI: > 100 µM
OVCAR-8 ovarian
  TGI: > 100 µM
RXF 393 renal
  TGI: > 100 µM
RXF-631 renal
  TGI: > 100 µM
SF-268 CNS
  TGI: > 100 µM
SF-539 CNS
  TGI: > 100 µM
SK-MEL-28 melanoma
  TGI: > 100 µM
SK-OV-3 ovarian
  TGI: > 100 µM
SN12C renal
  TGI: > 100 µM
SNB-19 CNS
  TGI: > 100 µM
SNB-75 CNS
  TGI: > 100 µM
SNB-78 CNS
  TGI: > 100 µM
SR leukemia
  TGI: > 100 µM
U251 CNS
  TGI: > 100 µM
UACC-257 melanoma
  TGI: > 100 µM
UO-31 renal
  TGI: > 100 µM
XF 498 CNS
  TGI: > 100 µM
